Organism: Rattus norvegicus
Assay: DrugMatrix - Regimen: Daily Repeat
Assay type: toxicity, organism-based, Sprague-Dawley
Set-up: regimen Daily Repeat, gender Male, age 6-8 weeks
Details: in vivo, po, route oral GAVAGE, vehicle .5 % CMC; for ABSOLUTE BASOPHIL / ABSOLUTE EOSINOPHIL / ABSOLUTE LYMPHOCYTE / ABSOLUTE MONOCYTE / ABSOLUTE SEGMENTED NEUTROPHIL / BASOPHIL / EOSINOPHIL / ERYTHROCYTE COUNT / HEMATOCRIT / HEMOGLOBIN / LEUKOCYTE COUNT / LYMPHOCYTE / MEAN CORPUSCULAR HEMOGLOBIN / MEAN CORPUSCULAR HEMOGLOBIN CONCENTRATION / MEAN CORPUSCULAR VOLUME / MONOCYTE / NEUTROPHIL / NUCLEATED RED BLOOD CELLS / PLATELET COUNT: tissue Blood; for ALANINE AMINOTRANSFERASE / ALBUMIN / ALKALINE PHOSPHATASE / ASPARTATE AMINOTRANSFERASE / BLOOD UREA NITROGEN / CARBON DIOXIDE / CHLORIDE / CHOLESTEROL / CREATINE PHOSPHOKINASE / CREATININE / GLUCOSE / LACTATE DEHYDROGENASE / LIPASE / PHOSPHORUS / POTASSIUM / SODIUM / TOTAL BILIRUBIN / TOTAL PROTEIN / URIC ACID: tissue Plasma
[1] = 44 mg/kg, 120 h, dose level Low, time 5 day
[2] = 439 mg/kg, 72 h, dose level High, time 3 day
[3] = 439 mg/kg, 120 h, dose level High, time 5 day

Brc1ccccc1 [BROMOBENZENE]
ABSOLUTE BASOPHIL [1]: 0 CELLS/uL | ABSOLUTE EOSINOPHIL [1]: 0 CELLS/uL | ABSOLUTE LYMPHOCYTE [1]: 9552.67 CELLS/uL | ABSOLUTE MONOCYTE [1]: 143.67 CELLS/uL | ABSOLUTE SEGMENTED NEUTROPHIL [1]: 903.67 CELLS/uL | BASOPHIL [1]: 0% | EOSINOPHIL [1]: 0% | ERYTHROCYTE COUNT [1]: 5.33 x10E6/uL | HEMATOCRIT [1]: 32.83% | HEMOGLOBIN [1]: 12.7 G/DL | LEUKOCYTE COUNT [1]: 10.6 x10E3/uL | LYMPHOCYTE [1]: 90% | MEAN CORPUSCULAR HEMOGLOBIN [1]: 23.83 pg | MEAN CORPUSCULAR HEMOGLOBIN CONCENTRATION [1]: 38.7 G/DL | MEAN CORPUSCULAR VOLUME [1]: 61.57 fL | MONOCYTE [1]: 1.33% | NEUTROPHIL [1]: 8.67% | NUCLEATED RED BLOOD CELLS [1]: 0 /100WBC | PLATELET COUNT [1]: 1057.33 x10E3/uL | ALANINE AMINOTRANSFERASE [1]: 40.67 u/L | ALBUMIN [1]: 4.3 G/DL | ALKALINE PHOSPHATASE [1]: 334.67 u/L | ASPARTATE AMINOTRANSFERASE [1]: 69.67 u/L | BLOOD UREA NITROGEN [1]: 14.67 mg/dL | CARBON DIOXIDE [1]: 26.33 mmol/L | CHLORIDE [1]: 101.67 MEQ/L | CHOLESTEROL [1]: 64.33 mg/dL | CREATINE PHOSPHOKINASE [1]: 162.67 u/L | CREATININE [1]: 0.24 mg/dL | GLUCOSE [1]: 160 mg/dL | LACTATE DEHYDROGENASE [1]: 86.67 u/L | LIPASE [1]: 9.33 u/L | PHOSPHORUS [1]: 11.83 mg/dL | POTASSIUM [1]: 6.35 MEQ/L | SODIUM [1]: 144.7 MEQ/L | TOTAL BILIRUBIN [1]: 0.1 mg/dL | TOTAL PROTEIN [1]: 6.2 G/DL | URIC ACID [1]: 1.67 mg/dL | ABSOLUTE BASOPHIL [2]: 0 CELLS/uL | ABSOLUTE EOSINOPHIL [2]: 46.33 CELLS/uL | ABSOLUTE LYMPHOCYTE [2]: 10833.67 CELLS/uL | ABSOLUTE MONOCYTE [2]: 138 CELLS/uL | ABSOLUTE SEGMENTED NEUTROPHIL [2]: 1815.33 CELLS/uL | BASOPHIL [2]: 0% | EOSINOPHIL [2]: 0.33% | ERYTHROCYTE COUNT [2]: 4.81 x10E6/uL | HEMATOCRIT [2]: 30.27% | HEMOGLOBIN [2]: 11.9 G/DL | LEUKOCYTE COUNT [2]: 12.83 x10E3/uL | LYMPHOCYTE [2]: 85.33% | MEAN CORPUSCULAR HEMOGLOBIN [2]: 24.7 pg | MEAN CORPUSCULAR HEMOGLOBIN CONCENTRATION [2]: 39.3 G/DL | MEAN CORPUSCULAR VOLUME [2]: 62.83 fL | MONOCYTE [2]: 1% | NEUTROPHIL [2]: 13.33% | NUCLEATED RED BLOOD CELLS [2]: 0.33 /100WBC | PLATELET COUNT [2]: 1082.33 x10E3/uL | ALANINE AMINOTRANSFERASE [2]: 59 u/L | ALBUMIN [2]: 4.17 G/DL | ALKALINE PHOSPHATASE [2]: 378.33 u/L | ASPARTATE AMINOTRANSFERASE [2]: 83.67 u/L | BLOOD UREA NITROGEN [2]: 15 mg/dL | CARBON DIOXIDE [2]: 29.33 mmol/L | CHLORIDE [2]: 100.67 MEQ/L | CHOLESTEROL [2]: 84.67 mg/dL | CREATINE PHOSPHOKINASE [2]: 171 u/L | CREATININE [2]: 0.22 mg/dL | GLUCOSE [2]: 160 mg/dL | LACTATE DEHYDROGENASE [2]: 172 u/L | LIPASE [2]: 12 u/L | PHOSPHORUS [2]: 12.47 mg/dL | POTASSIUM [2]: 6.1 MEQ/L | SODIUM [2]: 143.47 MEQ/L | TOTAL BILIRUBIN [2]: 0.13 mg/dL | TOTAL PROTEIN [2]: 5.97 G/DL | URIC ACID [2]: 1.03 mg/dL | ABSOLUTE BASOPHIL [3]: 0 CELLS/uL | ABSOLUTE EOSINOPHIL [3]: 0 CELLS/uL | ABSOLUTE LYMPHOCYTE [3]: 9268 CELLS/uL | ABSOLUTE MONOCYTE [3]: 132.4 CELLS/uL | ABSOLUTE SEGMENTED NEUTROPHIL [3]: 919.6 CELLS/uL | BASOPHIL [3]: 0% | EOSINOPHIL [3]: 0% | ERYTHROCYTE COUNT [3]: 5.45 x10E6/uL | HEMATOCRIT [3]: 32.3% | HEMOGLOBIN [3]: 12.54 G/DL | LEUKOCYTE COUNT [3]: 10.32 x10E3/uL | LYMPHOCYTE [3]: 89.6% | MEAN CORPUSCULAR HEMOGLOBIN [3]: 23 pg | MEAN CORPUSCULAR HEMOGLOBIN CONCENTRATION [3]: 38.82 G/DL | MEAN CORPUSCULAR VOLUME [3]: 59.26 fL | MONOCYTE [3]: 1.2% | NEUTROPHIL [3]: 9.2% | NUCLEATED RED BLOOD CELLS [3]: 0.2 /100WBC | PLATELET COUNT [3]: 1078.8 x10E3/uL | ALANINE AMINOTRANSFERASE [3]: 43.2 u/L | ALBUMIN [3]: 4.4 G/DL | ALKALINE PHOSPHATASE [3]: 375.2 u/L | ASPARTATE AMINOTRANSFERASE [3]: 72.8 u/L | BLOOD UREA NITROGEN [3]: 16.2 mg/dL | CARBON DIOXIDE [3]: 25.2 mmol/L | CHLORIDE [3]: 102.4 MEQ/L | CHOLESTEROL [3]: 77.2 mg/dL | CREATINE PHOSPHOKINASE [3]: 262.4 u/L | CREATININE [3]: 0.2 mg/dL | GLUCOSE [3]: 153.6 mg/dL | LACTATE DEHYDROGENASE [3]: 118.8 u/L | LIPASE [3]: 9.6 u/L | PHOSPHORUS [3]: 12.5 mg/dL | POTASSIUM [3]: 6.84 MEQ/L | SODIUM [3]: 144.22 MEQ/L | TOTAL BILIRUBIN [3]: 0.18 mg/dL | TOTAL PROTEIN [3]: 6.18 G/DL | URIC ACID [3]: 1.92 mg/dL

Source: ChEMBL document CHEMBL3885881, “DrugMatrix”
